The conditions of this series: rat; liver microsomes; pH 7.4; 15.0 min; 1.0 µM. In general terms: Microsomes from liver hold many membrane-bound enzymes, among them those of drug oxidation.

Where only a bound is given, the exact number is not on record here.

As a reminder, the half-life is the time in which the quantity being followed falls by half. Take `O=C(Nc1ccc(S(=O)(=O)Nc2nccs2)cc1)c1ccnc(-c2ccccc2)c1`: the half-life was over 30 min. Take `c1ccc(Nc2cc3c(cn2)CN(Cc2cccs2)CCN3)cc1`: the half-life is 1.77 min. As to `Cn1c2ccccc2c(=O)c2c(=O)n(-c3ccccc3)c(C3CCCCC3)nc21`, the half-life is over 30 min. `Cc1ccc(NS(=O)(=O)c2ccc(C(=O)Nc3nc(-c4ccccc4)cs3)cc2)cc1`: the half-life amounted to 6.5 min.

Consider `Clc1ccc(C2=Nn3c(nnc3-c3ccncc3)SC2)cc1`, for which the half-life is 9.1 min. The compound `COc1cccc(CNCCSc2nnnn2C)c1OCc1ccc(Cl)cc1Cl` showed a half-life of 1.35 min.

In turn, `O=C(Cc1cccc(OC(F)(F)F)c1)Nc1ccc(CCCCc2nnc(NC(=O)Cc3ccccn3)s2)nn1` returned a half-life of 20.9 min. Compound `O=c1cc(/C=C/c2c(F)cccc2Cl)[nH]c2ccccc12` came in with a half-life of 17.8 min. `O=C(Nc1nc(-c2ccccc2)cs1)c1ccncc1NS(=O)(=O)c1ccccc1F` registered a half-life of 7 min. The compound `Cc1cccc(S(=O)(=O)Nc2cnccc2C(=O)Nc2nc(-c3ccccc3)cs2)c1` came in with a half-life of 6 min. `COc1ccc(NC(=O)c2c(C)cccc2C)cc1[S+](=O)([O-])N1CCCCCC1` gave a half-life of 1.8 min. The compound `Cc1cn2nc(-c3nc(C4CCCN(C(=O)c5ccccc5)C4)no3)cc2c(=O)[nH]1` (stereo unspecified) registered a half-life of 13.6 min.

For `COc1ccc(NC2CCCN(C(=O)CCc3ccccc3F)C2)cc1` (stereo unspecified), the half-life was 2.36 min.

`COc1ccc(C2c3c(oc4ccc(C)cc4c3=O)C(=O)N2CCCN2CCOCC2)cc1OC` (stereo unspecified) showed a half-life of 7.59 min.

With `Cc1cccc(C)c1Nc1c(-c2cccs2)nc2ncccn12`, the half-life was found to be 3.72 min. The value for `O=C(CCCN1CCC2(CC1)C(=O)N(Cc1cccc(F)c1)CN2c1ccccc1)c1ccc(F)cc1` was 1.65 min.

For `CCN1CCCC1CNC(=O)c1cc(S(=O)(=O)CC)c(N)cc1OC` (stereo unspecified), the half-life is over 30 min. The value for `CCOc1ccc(CCNC(=O)c2ccc(Oc3ccccc3)cc2)cc1OCC` was 1.9 min; that for `O=C(NC(c1ccccc1)c1cc(Cl)c2cccnc2c1O)c1cccnc1` (stereo unspecified) was 18.6 min; that for `O=C(Nc1nc(-c2ccccc2)cs1)c1ccncc1NS(=O)(=O)c1ccc(C(F)(F)F)cc1` was 20 min. `CN(C)c1cccc(-c2ccnc(N3CCC(C(N)=O)CC3)n2)c1` yielded a half-life of 1.67 min.

`O=C(Nc1ccc(N2CCN(c3ncccc3C(F)(F)F)CC2)nc1)c1cccs1`: the half-life was 10.3 min.

`CC(C)c1ccc(OCc2nc3c(n2Cc2ccccc2)C(=O)N(CC2CC2)CCN3)cc1` had a half-life of 1.82 min. Turning to `Nc1ncnc2c1C(=O)N(c1ccc(C3CCC(CC(=O)O)CC3)cc1)CCO2` (stereo unspecified), the half-life was over 30 min. With `Cc1cc(-c2nnc3n2CCCCC3)c(C)n1-c1ccc([N+](=O)[O-])cc1` the figure was 2.5 min; with `Cc1ccc(C2=CSC(NC(=O)CSc3nncn3C)=NN2)cc1`, 1.8 min; with `Cc1ccc(N2CCN(c3cnn(-c4nc5ccccc5s4)c(=O)c3Cl)CC2C)cc1` (stereo unspecified), 10.5 min. Compound `COc1cc(NC(=O)c2nc3ccccc3n(C)c2=O)cc(OC)c1OC` showed a half-life of over 30 min. The value for `Cc1n[nH]c(C)c1CCc1nc2c3ccccc3nc(SCC(=O)Nc3ccc(F)cc3)n2n1` was 2.67 min; that for `CCOc1ccc(CCNC(=O)c2cc3sccc3n2Cc2cccc(C)c2)cc1OCC` was 1.8 min.

As to `CC(=O)c1c(C)[nH]c(C(=O)Nc2cccc(S(=O)(=O)N3CCOCC3)c2)c1C`, the half-life came to 17 min. The compound `CSc1cc2c(s1)c1cnn(Cc3cccc(N)c3)c(=O)c1n2C` yielded a half-life of 3.6 min.

As to `NC(=O)C1CCN(c2nc(-c3ccc(OCc4ccccc4)cc3)cs2)CC1`, the half-life worked out at 18.3 min. With `Cc1ccccc1CN1C2=NCCN2C(=O)C2=C1CCN(Cc1ccccc1)C2`, the half-life was 6.82 min. Consider `Fc1cc(Nc2nc(-c3ccncc3)nc3ccccc23)ccc1OC(F)(F)F`, for which the half-life is over 30 min.

As to `Fc1ccc(CNc2nc(-c3ccccc3C(F)(F)F)nc3ccccc23)cc1`, the half-life amounted to 19.8 min.

For `Cc1ccccc1C(=O)NC1CCN(c2ccc3nnc(C4CC4)n3n2)CC1`, the half-life was over 30 min. Turning to `Cc1cccc(N2CCN(C(=O)Cn3ncc4c3-c3ccccc3OC4)CC2)c1C`, the half-life stood at 2.76 min.

Compound `COc1ccc(OC)c(-c2nnc3n2N=C(c2c(OC)cccc2OC)CS3)c1` registered a half-life of 1.4 min. `Cc1ccc(S(=O)(=O)Nc2cnccc2C(=O)Nc2ccc(N3CCOCC3)cc2)cc1` came in with a half-life of 23 min. With `COc1cc(-c2nc(Nc3ccc(F)c(F)c3)c3ccccc3n2)cc(OC)n1` the figure was over 30 min. For the compound `CCn1c(C(=O)N2CCCC(C(=O)NCCc3ccc(C)cc3)C2)cc2sccc21` (stereo unspecified), the half-life amounted to 1.7 min. Consider `O=C1Nc2ccccc2/C1=C\c1ccc(O)c(Cl)c1`, for which the half-life was 16 min. `CC(C)(C)c1ccc(-c2nc(SCCCOc3ccccc3)n3[nH]c(=O)cc3n2)cc1` registered a half-life of over 30 min. Consider `Cc1ccc(S(=O)(=O)Nc2cnccc2C(=O)Nc2nc(-c3ccccc3Cl)cs2)cc1`, for which the half-life came out at 13 min.

The compound `Cc1csc2c1c(=O)n(O)c(=O)n2Cc1ccccc1` returned a half-life of over 30 min. `Cc1ccc(O)c(-c2cc(-c3ccccc3C)[nH]n2)c1` displayed a half-life of 24.4 min. The compound `Cc1ccc(-c2cc(C(=O)NCc3cnn(C)c3C)c3cc(Br)ccc3n2)cc1` returned a half-life of 12 min. Turning to `COC(=O)c1cc(Cl)ccc1NC(=O)CSc1ncc(S(=O)(=O)c2ccc(Br)cc2)c(=O)[nH]1`, the half-life came out at 18 min. `CN1C(=O)c2ccccc2[S@](=O)c2ccc(C(=O)NCc3ccc(Br)cc3)cc21` displayed a half-life of 13 min.

With `C[C@H]1CN(C(=O)Nc2ccc(F)cc2)C[C@@H]1c1nc(-c2ccccc2)no1`, the half-life is over 30 min.

`COc1cc(C2c3cc(O)c(OC)cc3CC3C(=O)OCC32)ccc1O` (stereo unspecified) gave a half-life of 21.1 min. With `Cc1ccc(S(=O)(=O)Nc2ccncc2C(=O)Nc2nc(-c3ccccc3)cs2)cc1`, the half-life is over 30 min. On to `COc1ccccc1N1CCN(CCN(C(=O)c2ccc(I)cc2)c2ccccn2)CC1`, for which the half-life was 1.49 min. Compound `Cc1ccc(S(=O)(=O)Nc2ccccc2C(=O)Nc2nc(-c3ccc(Cl)cc3)cs2)cc1` came in with a half-life of 8.85 min. The compound `NC(=O)C1CCN(c2nc(-c3cccc([N+](=O)[O-])c3)cs2)CC1` registered a half-life of 2.3 min. Turning to `O=C(Nc1ccc2oc(-c3ccccc3F)nc2c1)c1ccc([N+](=O)[O-])o1`, the half-life is over 30 min. `COc1cccc(CNc2ccc(S(=O)(=O)Nc3ccc4ccccc4c3)cc2)c1O` yielded a half-life of 10 min. On to `COc1cccc2nc(-c3cccs3)nc(NN3C(=O)C=C(C)C3=O)c12`, for which the half-life was determined as 4.26 min. The compound `COc1ccc(C2=Nc3ccc(C)cc3C(c3ccccc3)N2CC(=O)NN)cc1` (stereo unspecified) returned a half-life of 5.3 min. `COc1ccc(-c2csc(NC(=O)c3ccccc3NS(=O)(=O)c3ccc(C)cc3)n2)cc1` yielded a half-life of 2.34 min.

In turn, `O=C1CCCC2=C1C(c1[nH]ncc1Br)N=C(Nc1nc3ccccc3o1)N2` (stereo unspecified) came in with a half-life of 14 min.

For the compound `CCOC(=O)Nc1ccc(NCc2ccc(F)cc2)nc1N`, the half-life is over 30 min. The compound `CSc1ccc(/C=C/c2nc3ccccc3n2S(=O)(=O)c2ccc(Br)cc2)cc1` had a half-life of 6.3 min. For the compound `CN(Cc1cccs1)c1nc(-c2ccccc2C(F)(F)F)nc2ccccc12`, the half-life was determined as 1.98 min. With `O=C(Nc1nc(-c2ccc(F)cc2)cs1)c1ccncc1NS(=O)(=O)c1ccc(F)cc1` the figure was over 30 min; with `O=S(=O)(Nc1nccs1)c1ccc(NCc2ccccc2O)cc1`, 24 min. `COc1ccc(S(=O)(=O)N2CCOCC2)cc1NC(=O)c1cccc(-n2cccc2)c1` had a half-life of 3.37 min. The compound `CN(C(=O)CNC(=O)c1cc(F)ccc1OCC(=O)Nc1ccc(I)cc1)c1ccc(F)cc1` yielded a half-life of 1.74 min.

`Cc1ccc(-n2nc3c(=O)n(CCCC(=O)NCc4ccccc4F)nc(C)c3c2C)cc1` gave a half-life of 2.6 min.

On to `CC(=O)c1ccc(N2CCN(S(=O)(=O)c3ccc4[nH]c(=O)[nH]c4c3)CC2)cc1`, for which the half-life was over 30 min. Regarding `Cc1cnc(-c2ccccc2C2COC2)nc1NCc1ccc(-c2cccnc2)cc1`, the half-life was 12 min.

Compound `O=C(Nc1ccc(S(=O)(=O)Nc2nccs2)cc1)c1ccc(-c2ccccc2)cc1` registered a half-life of over 30 min.

Turning to `Cc1cc(-c2cc3c(nc2-c2ccccc2)nc(C(=O)NCCN(C)C)n3C)ccn1`, the half-life is over 30 min. The compound `CC(=O)NC(c1cccs1)c1cc(Br)c2cccnc2c1O` (stereo unspecified) had a half-life of 5.21 min.

The compound `O=C(c1cnc(N2CCCCC2)c2ccccc12)N1CCN(c2ccc(Cl)cc2)CC1` displayed a half-life of 2.8 min.

`Cc1ccc(NC(=O)c2c(N3CCCC3=O)c3cc(C)ccc3n2C)c(C)c1` registered a half-life of 1.31 min. Compound `CCN1CCCC1CNCc1ccccc1` (stereo unspecified) had a half-life of 2.5 min. `C[N+]1([O-])[C@@H]2CC[C@H]1CC(OC(=O)C(CO)c1ccccc1)C2` (stereo partly specified) had a half-life of over 30 min.

In turn, `O=[S+]([O-])(Nc1nccs1)c1ccc(NCc2ccc(Cl)c(Cl)c2)cc1` returned a half-life of 24 min.

On to `Cc1cn2c(N)c(Cl)cc(C(=O)NCC3CCN(CC(C)C)CC3)c2n1`, for which the half-life was over 30 min.

In turn, `CN(C)CCOC1=Cc2ccccc2Sc2ccc(Cl)cc21` registered a half-life of 1.29 min. Compound `C[C@H]1CCC[C@H](O)CCC/C=C/c2cc(O)cc(O)c2C(=O)O1` returned a half-life of 15.2 min.

The compound `Cc1ccc(S(=O)(=O)Nc2cc(Cl)cc(C(=O)Nc3nc(-c4ccccc4)cs3)c2)cc1` registered a half-life of 22 min. `CC(C)NC(=O)N1C[C@@H]2C[C@H](C1)c1ccc(-c3cccc(C(F)(F)F)c3)c(=O)n1C2` had a half-life of 12.5 min. For the compound `O=c1cc(N2CCOCC2)oc2c1ccc1ccccc12`, the half-life was over 30 min. In turn, `Cc1ccc(S(=O)(=O)Nc2ccccc2C(=O)Nc2ccc(-c3ccccc3)nn2)cc1` came in with a half-life of 4 min.

`O=C(c1ccc2ncccc2c1)N1CCc2c(nc3cc[nH]n3c2=O)C1`: the half-life was over 30 min. Regarding `Cc1ccc(S(=O)(=O)Nc2cnccc2C(=O)Nc2nc(-c3ccncc3)cs2)cc1`, the half-life amounted to 17 min. `Cc1ccc(S(=O)(=O)Nc2ccccc2N2CCCCC2)cc1` gave a half-life of 1.69 min.

Regarding `CC(=O)Nc1ccc(C(=O)Nc2ccc3c(c2)N(C2CCCC2)C(=O)c2ccccc2S3)cc1`, the half-life came out at 2.21 min.
